Type in all cases: cell-based
Test [1] has as its system Ring constructs made with a Caco2 outer ring and a SW480 core. Put plainly: Concentric ring construct drug treatment (MTS assay, LIVE/DEAD staining). The text has this:
The first objective of this project was to evaluate a 3D model of a colorectal cancer tumor surrounded by normal host tissue. The engineered concentric ring construct consists of a colorectal tumor core and a colon epithelial outer ring, to model a tumor in a reductionist, yet physiologically relevant environment. This construct was used to measure the growth of the tumor core, any observed invasion of the tumor cells into the epithelial layer, and the efficacy of drugs. The constructs were created with cells suspended in a hyaluronic acid and gelatin-based hydrogel. The tumor cores were made using one of four colorectal cancer cells types, thereby providing models of 4 levels of malignancy. The HCT116 cells were the most malignant, followed by the HT29, SW480, and Caco2 cells. Caco2 cells were also employed in the outer ring, as they best resemble healthy epithelial cells. The tumor core was fluorescently labeled and fluorescent imaging was used to monitor the tumor core over the course of 7-14 days. […] Ring constructs made with a Caco2 outer ring and a SW480 core were also treated with Regorafenib, a chemotherapy agent.
(Formazan colour is commonly taken as a measure of viable cells.)

Test [2] relates to HT29 cells. Put plainly: cells. The note with it: Homo sapiens, HT-29, read-out: relative cellular viability (MTS, relative to control). On the procedure:
(§1) Cancer cells seeded directly into wells were given 4-5 hours to reattach to the bottom of the wells. After that time, the anticancer drug solutions were administered in place of the media (FIG. 6, panel A) and an MTS assay was carried out 2 days later to determine cell viability. […] At 100 μM concentrations of Regorafenib and Sorafenib, and 100 mM concentrations of 5-FU, cellular viability remained below 20% that of the control for all four of the colorectal cancer cell lines utilized. However, screening with Dabrafenib and Trametinib produced diverging results from the other three anticancer drugs at higher concentrations. […] When treated with 1 mM concentrations of 5-FU, relative cellular viability was approximately 39% for SW480 cells and remained between 10%-22% for the HCT116, HT29, and CACO2 cells. These values were considerably lower than the relative cellular viability values for the lowest concentrations of the other anticancer drugs.
(§2) Cell Seeding: The original 15 mL centrifuge tubes containing the 10 mL of DMEM-10, cells, and trypsin were placed into a centrifuge. The centrifugation setting was 1500 RPM and at maximal acceleration for 5 minutes. After that time, the media and trypsin mixture was aspirated from the tubes, leaving the cell pellets still intact. 5 mL of DMEM-10 was then pipetted into each of the tubes, resuspending the cells in the process. Calculated volumes of the 5 mL cell-media solution were determined to ensure that 25,000 cells of each of the four colorectal cancer cell lines were seeded directly into each of the wells of a polystyrene clear-bottom 96-well plate. 100 μL of DMEM-10 media was then pipetted directly into the wells. The 96-well plates were incubated at 37° C. and 5% CO2 for 5 hours to allow the cells to reattach themselves to the bottom of the wells until media was aspirated and anticancer drug solutions were added.
(§3) Addition of Anticancer Drugs for Screening: The anticolorectal cancer drugs used in this screening included 5-FU, Regorafenib, Sorafenib, Trametinib, and Dabrafenib (Sigma-Aldrich, Missouri, USA)). High concentration drug stock solutions were created with DMSO. Lower concentration drug solutions were created by mixing the anticancer drug stocks with DMEM-10 media. […] drug solutions were generated for 5-FU; 1 μM, 10 μM, and 100 μM drug solutions were generated for Regorafenib, Sorafenib, and Dabrafenib; and 1 nM, 10 nM, and 100 nM drug solutions were generated for Trametinib. Media was carefully aspirated from the wells and 200 μL of the various drug-media solutions were placed into the wells containing cells. Three duplicates were generated for each anticancer drug concentration with each of the different cell types to calculate averages and run statistics on the data generated. Well plates were then incubated at 37° C. and 5% CO2 for […].
(§4) Cell viability assay: Cell viability was determined 48 hours after exposure to the anticancer drug solutions. The viability of the cells was examined by the CellTiter 96® AQueous One Solution Cell Proliferation (MTS) assay (Promega, Wisconsin, USA). The anticancer drug-media solutions were aspirated from the wells and 200 μL of the MTS reagent was carefully pipetted into the wells. The incubation time for the cells with the MTS reagent was approximately 45 minutes. The cell viability assay was performed on another 96-well plate and the absorbance was quantified by the EnVision Multilabel Plate Reader (PerkinElmer, California, USA).

For test [3], the system named is CACO2 cells. Kind of test: cells. The settings on record: Homo sapiens, Caco-2, read-out: relative cellular viability (MTS, relative to control). Here is the method:
as §1, §2, §3, §4

The test system of test [4] is HCT116 cells. Put plainly: cells. The note with it: Homo sapiens, HCT-116, read-out: relative cellular viability (MTS, relative to control). Here is the method: as §1, §2, §3, §4

Bounds are passed on as bounds.

Turning to `CNC(=O)c1cc(Oc2ccc(NC(=O)Nc3ccc(Cl)c(C(F)(F)F)c3)c(F)c2)ccn1` [Regorafenib], in test [1] (inner ring versus outer Caco2 cells), the “cells targeted within the ring construct (LIVE/DEAD staining)” value is “selectively targeted the inner ring of the construct”. Further, the “amount of viable cells after treatment (MTS assay)” value in test [1] (ring construct, Caco2 outer ring, SW480 core) is reported as “decrease in the amount of viable cells”. Further, the viability at 100 µM in test [2], in test [3] and in test [4] was below 20% each time.

The values are drawn from patent US20190187129A1, “CANCER MODELING PLATFORMS AND METHODS OF USING THE SAME” (Wake Forest University Health Sciences, priority 2016, published 2019).
